Patent US5576188A, “Immunological detection of metolachlor” (Ciba-Geigy Corporation, priority 1990, dated 1996)

Key:
MAb 4082-25-4 [1] = experiment: Indirect competitive ELISA (assay A), inhibition of MAb 4082-25-4 binding / cross-reactivity; set-up: species or system BALB/c mouse; details: for I50 (inhibitor concentration for 50% inhibition in the competitive ELISA): MAb 4082-25-4; for Cross-reactivity (metolachlor concentration for 50% inhibition / concentration of metolachlor analogue for 50% inhibition × 100): MAb 4082-25-4, relative to metolachlor
Source text: The percentage cross-reactivity is to be defined within the scope of this invention by the following relation:
(Metolachlor concentration for 50% inhibition/concentration of the metolachlor analogues for 50% inhibition)×100.
A 50% inhibition can be determined, for example, with the aid of a competitive ELISA assay (compare Example 8). This then corresponds, for example, to that antigen concentration which leads to 50% inhibition of antibody binding to the carrier-bound antigen.
8.1: Indirect ELISA (assay A)
Metolachlor is detected by means of a two-stage competitive ELISA test using an enzyme-labelled second antibody.
BSA-conjugated hapten in a 50 mM sodium carbonate buffer (pH 9.6) (200 ng of BSA-conjugated hapten/100 μl of sodium carbonate buffer) is initially adsorbed onto microtitre plates (for example Dynatech, type M 129A) and incubated at a temperature of 4° C. overnight. It has emerged that the sensitivity of the assay can be increased almost 5-fold by reducing the conjugate[BSA/hapten] concentration from 200 ng/100 μl of sodium carbonate buffer to 50 ng/100 μl of sodium carbonate buffer because the coating is improved.
The plates are then washed 5× with PBS buffer which is supplemented with 0.1% (v/v) polysorbate 20 (Tween 20) (PBS-Tween).
The remaining free binding sites on the solid support material are then blocked by adding BSA in the form of a 1% solution. After incubation at 22° C. for two hours the plates are again washed with PBS-Tween (0.1%).
50 μl of the previously purified monoclonal antibodies (0.2 μg/ml) or else of the supernatant of the cell clones (in a dilution of 1:15) are incubated a) with 950 μl of a standard solution which contains an increasing content of metolachlor or metolachlor analogue, b) with metolachlor-containing water samples or c) metolachlor-containing soil extracts. (PBS-Tween is used for all dilutions).
After an incubation time of 1 hour at room temperature (22° C.), 200 μl of the antigen/antibody mixture are added to each well of the microtitre plate, and the entire mixture is incubated for a further hour. The wells are then washed 5× with PBS-Tween (0.1%) and charged with 100 μl/well of goat anti-mouse IgG antibody which is conjugated to alkaline phosphatase (dilution 1:1500) and incubated for a period of 1.5 hours.
After renewed washing, 150 μl/well of the substrate p-nitrophenyl phosphate which is dissolved in 1 mg/ml diethanolamine buffer (1 mM, pH 9.8, supplemented with 0.5 mM MgCl2 ×6H2 O) are added to the wells.
After an incubation time of 2 hours at a temperature of 22° C. it is possible to observe a colour change which is proportional to the amount of antibody which has reacted with the antigen bound to the solid phase. The intensity of the colour reaction which has occurred is determined at a wavelength of 405 nm. The dilutions of the individual samples are chosen so that absorptions in a range between 0.3 and 0.5 are obtained without addition of an inhibitor (Bo). Values of R≤0.005 are found for the controls (without antibody and with undetectable amounts of antigen). All the samples are determined in triplicate.
(§1) For the determination of the amount of metolachlor contained in a sample, initially a calibration plot is constructed (FIG. 1), where B/Bo×100is plotted against the concentration of inhibitor. (Bo represents the absorbance measured without addition of a metolachlor inhibitor to the antibody, and B means the absorbance measured with various concentrations of metolachlor inhibitor). […] The I50 value is calculated using an ENZFITTER (Leatherbarrow, Elsevier-Biosoft) plot calculation program specifically adapted to the present circumstances and based on a logistic plot embracing 4 parameters (Raab GM, 1983). The quantitative determination of metolachlor in samples of soil or water within the scope of the ELISA is also carried out using the ENZFITTER program, with the fitting of the plot being based on standards included on each microtitre plate. […]

MAb 4082-25-4 [2] = experiment: Direct competitive ELISA (assay B); format: binding, BALB/c mouse
Protocol: 8.2: Direct ELISA (assay B)
Microtitre plates [Dynatech M 129A] are coated with monoclonal antibodies [for example MAb 4082-25-4; 75 ng/100 μl of 50 mM sodium carbonate buffer, pH 9.6] and incubated at a temperature of 4° C. overnight. The plates are then washed 5 times with 0.1% (v/v) PBS-Tween and subsequently incubated with PBS supplemented with 1% (w/v) BSA for 2 hours in order to block the binding sites which are still free. After renewed washing, 150 μl of a standard solution are added to each of the wells of the microtitre plates which contain increasing amounts of metolachlor in 0.1% (v/v) PBS-Tween. This is followed by incubation at a temperature of 22° C. for 1 hour. […] After incubation at 22° C. in the dark for 2 hours, the absorption of 405 nm is determined.
as §1, with “1983).” for “1983). The quantitative determination of metolachlor in samples of soil or water within the scope of the ELISA is also carried out using the ENZFITTER program, with the fitting of the plot being based on standards included on each microtitre plate.”

Structure (SMILES)	I50 (inhibitor concentration for 50% inhibition in the competitive ELISA) (MAb 4082-25-4 [1]) [ng/mL]	Cross-reactivity (metolachlor concentration for 50% inhibition / concentration of metolachlor analogue for 50% inhibition × 100) (MAb 4082-25-4 [1]) [%]	I50 (MAb 4082-25-4 [2]) [ng/mL]
CCc1cccc(CC)c1N(COC)C(=O)CCl [Alachlor]	> 1000	< 0.1	–
CCc1cccc(C)c1NC(=O)CCl [C]	> 1000	< 0.1	–
CCc1cccc(C)c1NC(=O)CO [D]	> 1000	< 0.1	–
CCc1cccc(C)c1NC(C)CO (stereo not drawn) [E]	> 1000	< 0.1	–
CCc1cccc(C)c1N(C(=O)CO)C(C)CO (stereo not drawn) [F]	> 1000	< 0.1	–
COCC(=O)N(c1c(C)cccc1C)C(C)C(=O)O (stereo not drawn) [G]	> 1000	< 0.1	–
Cc1cccc(C)c1N(C(=O)CO)C(C)C(=O)O (stereo not drawn) [H]	> 1000	< 0.1	–
COCC(=O)N(c1c(C)cccc1C)C(C)C(=O)OC (stereo not drawn) [L]	> 1000	–	–
CCc1cccc(C)c1N(C(=O)CCl)C(C)COC (stereo not drawn) [Metolachlor, 2-chloro-6'-ethyl-N-(2-methoxy-1-methyl-ethyl)acet-O-toluidide]	0.6	100	1.0
COC(=O)C(C)N(C(=O)c1ccco1)c1c(C)cccc1C (stereo not drawn) [N]	> 1000	–	–
COC(=O)C(C)N(C(=O)c1ccco1)c1c(C)cccc1C (stereo not drawn) [furalaxyl]	–	< 0.1	–
COCC(=O)N(c1c(C)cccc1C)C(C)C(=O)OC (stereo not drawn) [matalaxyl]	–	< 0.1	–

Second part, led by results:

I50 (inhibitor concentration for 50% inhibition in the competitive ELISA) (MAb 4082-25-4 [1]) [ng/mL]	Cross-reactivity (metolachlor concentration for 50% inhibition / concentration of metolachlor analogue for 50% inhibition × 100) (MAb 4082-25-4 [1]) [%]	Structure (SMILES)	I50 (MAb 4082-25-4 [2]) [ng/mL]
43	1.4	CCc1cccc(C)c1N(C(=O)CO)C(C)COC (stereo not drawn) [A]	–
> 1000	< 0.1	CCc1cccc(C)c1NC(C)COC (stereo not drawn) [B]	–
> 1000	< 0.1	COC(=O)C(C)Nc1c(C)cccc1C (stereo not drawn) [Compound I]	–
> 1000	< 0.1	COCC(=O)Nc1c(C)cccc1C [J]	–
> 1000	< 0.1	Cc1cccc(C)c1NC(C)C(=O)O (stereo not drawn) [K]	–
> 1000	< 0.1	COCC(=O)N(c1c(C)cccc1CO)C(C)C(=O)OC (stereo not drawn) [M]	–
